{
  "source": "patent US6423700B1",
  "about": "“17-halogenated 19-nor steroids, method and intermediates for preparing same, use as medicines and pharmaceutical compositions containing same” (Aventis Pharma S.A., priority 1998, dated 2002)",
  "key": {"[1]": {"tested_on": "ovariectomized female rat", "test": "Bone impact study in the ovariectomized female rat at the age of 3 months (tibia BMD, uterus weight, serum cholesterol)", "assay_type": "in vivo", "settings": "OVX rat; for UTERUS Weight % / Cholesterol %: 4 weeks; for UTERUS Weight %: increase in % of uterus weight of OVX animals receiving solvent; for Cholesterol %: serum cholesterol change in % relative to OVX animals receiving solvent; for TIBIA BONE BMD %: OVX=0, SHAM=100", "protocol": "Bone impact study of a product in the ovariectomized female rat at the age of 3 months The compounds are tested in order to determine their effect on the bone mass and on the formation and resorption activity in the model of the ovariectomized rat at the age of 3 months. The animals are treated in a preventive fashion. [table] 1—Product to be tested: Product of Example 1. vehicle(s): corn oil, 0.5% methylcellulose number of administrations: once/day; 5 days/week for 4 weeks administration route: oral route for the product 2—Reference product: 17β oestradiol is administered by subcutaneous route at a dose of 0.1 or 0.01 mg/kg/d in solution in a mixture of corn oil-benzyl alcohol (99:1, v/v) under a volume of 0.2 ml/kg. The study is carried out with female rats ovariectomized at the age of 3 months. The animals are kept in an air-conditioned room (temperature 20° C.±2° C.) and grouped by 4 into boxes. The animals receive, ad libitum, demineralized water and compressed foods (pellets: AO4CR-10 UAR). The 3 month old female rats weighing approximately 250 g are ovariectomized under anaesthesia with Imalgene 1000, at a dose of 100 mg/kg by intraperitoneal route (i.p.) and under a volume of 1 ml/kg. They also receive Nembutal (3 mg/kg i.p. under a volume of 0.3 ml/kg). The effects of the products are determined in a preventive treatment. They are administered immediately after the ovariectomy. Animals are distributed into groups of 8. Group 1: “SHAM” control rats receiving the vehicle or vehicles. Group 2: “OVX” control rats receiving the vehicle or vehicles. Groups X: “OVX” rats receiving respectively defined doses of the product or products to be tested. At the end of 4 weeks (duration of the study) the animals are decapitated by guillotine. The serums collected after centrifugation are preserved at −20° C. A lipidic balance will be established from the serous determinations of total cholesterol, of triglycerides and of phospholipids on a 500 μl aliquot of serum. Lowering of the serous cholesterol level is expressed in % relative to the level shown by the ovariectomized animals receiving only the solvent. The uteri are removed. The latter are weighed. The increase in weight is expressed in % of the weight of the uterus of ovariectomized animals receiving only the solvent. The bone mass (BMD or bone mineral density) is measured by biphotonic dual energy X-ray absorptiometry (DEXA). The measurements are carried out on bone excized and cleaned of all soft tissue. The BMD (bone mineral density) is measured on the whole bone as well as on the metaphyseal part at the level of the proximal extremity for the left tibia. This zone is defined as being the region which is richest in trabecular bone; and consequently, is the most sensitive to variations in bone volume and bone mineral density. The results are expressed in % according to the formula: […]"}, "[2]": {"tested_on": "MCF-7 human mammary cells", "test": "Effect on the proliferation of mammary cells (MCF-7, determination of the DNA)", "assay_type": "cell-based", "parameters": "key: Agonist: the effect of the oestradiol at 10^−10M (cell growth in the presence of oestradiol less cell growth in the presence of the solvent) determines the 100% agonist activity; Inactive: molecules inducing an identical cell growth to that observed with the solvent alone are classified as “inactive”; Inhibitor: those inducing a lower cell growth to that observed with the solvent are classified as “inhibitor”", "settings": "7 days culture in steroid-free medium; compared with oestradiol at 10^−10M = 100% agonist activity", "protocol": "Effect on the Proliferation of Mammary Cells The proliferative activity of the molecules is studied in comparison to that of oestradiol on MCF-7 human mammary cells in culture. […] Cells undergo this severance two days before the start of the test. After 7 days culture in the presence of the products to be studied, the cell proliferation is evaluated by determination of the DNA. In each test, the effect of the oestradiol at 10^−10M (cell growth in the presence of oestradiol less cell growth in the presence of the solvent) determines the 100% agonist activity. The activity of the molecules is evaluated in comparison to this internal control."}, "[3]": {"settings": "0.3 mg/kg po, listed as Ex. 1, 0.3 mg/kg"}},
  "note": "“And” between values parts separate entries of the source, which are not always exact repeats. Equal values may be shown once.",
  "data": [
    {"smiles": "COc1ccc2c(c1)CC[C@@H]1[C@@H]2[C@@H](c2ccc(OCCN3CCCC3)cc2)C[C@]2(C)[C@H](F)CC[C@@H]12", "values": [
      {"measurement": "melting point", "result": 132, "unit": "°C"}
    ]},
    {"smiles": "C[C@]12C[C@H](c3ccc(OCCN4CCCCC4)cc3)[C@@H]3c4ccc(O)cc4CC[C@H]3[C@@H]1CC=C2I.Cl", "values": [
      {"measurement": "melting point", "result": 260, "unit": "°C"}
    ]},
    {"smiles": "CC1CCN(CCOc2ccc([C@H]3C[C@]4(C)[C@H](F)CC[C@H]4[C@@H]4CCc5cc(O)ccc5[C@H]43)cc2)CC1.Cl", "values": [
      {"measurement": "melting point", "result": 200, "unit": "°C"}
    ]},
    {"smiles": "C[C@]12C[C@H](c3ccc(OCCN4CCCCC4)cc3)[C@@H]3c4ccc(O)cc4CC[C@H]3[C@@H]1CC[C@H]2F", "note": "[Example 1, 17 alpha-fluoro-11 beta-[4-[2-(1-piperidinyl)ethoxy]phenyl]-estra-1,3,5(10)-trien-3-ol]", "values": [
      {"measurement": "UTERUS Weight %", "setting": "[1]; 0.1 mg/kg po", "result": 67, "unit": "%"},
      {"measurement": "Cholesterol %", "setting": "[1]; 0.1 mg/kg po", "result": "−49", "unit": "%"},
      {"measurement": "TIBIA BONE BMD %", "setting": "[1]; 0.1 mg/kg po, once/day 5 days/week 4 weeks", "result": 57, "unit": "%"},
      {"measurement": "UTERUS Weight %", "setting": "[1]; [3]", "result": "70% and 41%"},
      {"measurement": "Cholesterol %", "setting": "[1]; [3]", "result": "−59% and −51%"},
      {"measurement": "TIBIA BONE BMD %", "setting": "[1]; 0.3 mg/kg po, once/day 5 days/week 4 weeks, listed as Ex. 1, 0.3 mg/kg", "result": "71% and 73%"},
      {"measurement": "UTERUS Weight %", "setting": "[1]; 1.0 mg/kg po", "result": 93, "unit": "%"},
      {"measurement": "Cholesterol %", "setting": "[1]; 1.0 mg/kg po", "result": "−61", "unit": "%"},
      {"measurement": "TIBIA BONE BMD %", "setting": "[1]; 1.0 mg/kg po, once/day 5 days/week 4 weeks", "result": 72, "unit": "%"},
      {"measurement": "ACTIVITY (proliferative activity on MCF-7 cells)", "setting": "[2]", "result": "Inactive"}
    ]},
    {"smiles": "C[C@]12C[C@H](c3ccc(OCCN4CCCCC4)cc3)[C@@H]3c4ccc(O)cc4CC[C@H]3[C@@H]1CC[C@H]2F.Cl", "note": "[Example 2, 17 alpha-fluoro-11-beta-[4-[2-(1-piperidinyl)ethoxy]phenyl]-estra-1,3,5(10)-trien-3-ol hydrochloride]", "values": [
      {"measurement": "ACTIVITY (proliferative activity on MCF-7 cells)", "setting": "[2]", "result": "Inactive"}
    ]},
    {"smiles": "C[C@]12CC[C@@H]3c4ccc(O)cc4CC[C@H]3[C@@H]1CC[C@@H]2O", "note": "[Oestradiol, 17β oestradiol, reference compound]", "values": [
      {"measurement": "TIBIA BONE BMD %", "setting": "[1]; 0.01 mg/kg s.c., 4 weeks preventive", "result": 95, "unit": "%"},
      {"measurement": "UTERUS Weight %", "setting": "[1]; 0.01 mg/kg s.c.", "result": 317, "unit": "%"},
      {"measurement": "Cholesterol %", "setting": "[1]; 0.01 mg/kg s.c.", "result": "−16", "unit": "%"},
      {"measurement": "TIBIA BONE BMD %", "setting": "[1]; 0.1 mg/kg s.c., 4 weeks preventive", "result": 139, "unit": "%"},
      {"measurement": "UTERUS Weight %", "setting": "[1]; 0.1 mg/kg s.c.", "result": 220, "unit": "%"},
      {"measurement": "Cholesterol %", "setting": "[1]; 0.1 mg/kg s.c.", "result": "−3", "unit": "%"},
      {"measurement": "ACTIVITY (proliferative activity on MCF-7 cells)", "setting": "[2]", "result": "Agonist"}
    ]}
  ]
}
